Experiments:
pig skin = assay: HPLC test for surfactant deposition onto pig skin after wash; details: SDS measured in combination with the benefit agent
[1] = biological target: BSA (Bovine Serum Albumin) (Bos taurus, UniProt P02769); assay: Conductivity test: surfactant binding to BSA protein; details: 10% SDS with 10% oil (1:1), 0.5% BSA in 0.02M acetate buffer pH~5.2, room temperature
Method: Conductance measurements were carried out at room temperature by use of a Thermo conductivity meter, model Orion 150+. Routinely, the titrations were performed by adding a controlled amount of 10% of stock surfactant solution under magnetic stirring into the 0.5% BSA (Bovine Serum Albumin) in 0.02M acetate buffer at pH˜5.2. Values of CMC (critical micellization concentration), CAC (critical aggregation concentration) and protein saturation point (PSP) were defined by the changing of the slope of the conductivity vs. surfactant concentration plots. The number of surfactants binding to each protein can be calculated by: {[PSP]−[CAC]}/{[protein]/Mwprotein}, where [protein] is the protein concentration.
In order to show the effect of benefit agent having different polarity on binding to protein molecule (a reflection of the harshness of surfactant; more surfactant binding to protein equal harsher and more damage expected), applicants tested surfactant binding of (1) surfactant alone and (2) of surfactant in combination with various oils/cosolvents (at 1:1 surfactant to oil ratio) to see level of (how many) surfactants binding per protein molecule (e.g., BSA) at saturation. The tests were done using conductivity test described in protocol and results are set forth below in Table 1.
Applicants conducted same test as in Examples 1 to 10, but used SLES/CAPB surfactant system instead of SDS.

BSA = BSA (Bos taurus, UniProt P02769); assay: Micro-DSC for protein denaturation; details: denaturation enthalpy approaching zero, FIG. 5
Chain of BSA (P02769 25-607): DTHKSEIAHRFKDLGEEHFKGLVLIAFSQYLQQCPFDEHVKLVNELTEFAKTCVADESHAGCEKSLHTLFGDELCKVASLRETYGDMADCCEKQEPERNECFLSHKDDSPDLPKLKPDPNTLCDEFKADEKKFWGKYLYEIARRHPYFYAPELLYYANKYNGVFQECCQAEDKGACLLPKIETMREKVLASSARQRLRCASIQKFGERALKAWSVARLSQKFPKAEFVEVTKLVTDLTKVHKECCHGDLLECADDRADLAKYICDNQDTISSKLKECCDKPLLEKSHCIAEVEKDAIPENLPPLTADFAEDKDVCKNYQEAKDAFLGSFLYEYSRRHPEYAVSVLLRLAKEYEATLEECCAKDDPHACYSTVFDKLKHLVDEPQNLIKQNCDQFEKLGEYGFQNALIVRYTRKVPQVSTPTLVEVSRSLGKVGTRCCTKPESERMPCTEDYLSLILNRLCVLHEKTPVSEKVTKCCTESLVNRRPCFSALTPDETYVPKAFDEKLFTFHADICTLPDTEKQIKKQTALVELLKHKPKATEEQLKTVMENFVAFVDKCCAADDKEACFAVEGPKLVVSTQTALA
Method: 1.2% of BSA acetate buffer solution was prepared (pH 5.2, IS 0.02). […] Then the BSA acetate solution was titrated with either oil, or surfactant, or oil/surfactant at 1:1 ratio. After each titration, a DSC measurement was performed.

Chain of BSA (Bovine Serum Albumin) (P02769 25-607): as above

CCCCCCCCCCCC [dodecane]
SDS deposition versus SDS alone (FIG. 1) (pig skin): deposition was about the same or higher

CCCCCCCCCCCCOS(=O)(=O)[O-].[Na+] [10% SDS, Sodium dodecyl sulfate]
Saturated binding: No. of surfactant per BSA at saturation [1]: 220 | ratio surfactant to protein at which BSA is fully denatured at room temperature (BSA): about 1.2

Reference: patent US7799747B2, “Method of reducing surfactant damage using compositions comprising benefit agents of defined high polarity” (Conopco, Inc., priority 2005, dated 2010)
